How the values were obtained:
human BACE1 = human BACE1 (Homo sapiens, UniProt P56817); assay: Fluorescent kinetic assay: Evaluation of BACE-1 Binding Affinity of Test Compounds; format: biochemical; settings: 10 nM enzyme, 25 μM substrate WABC-6, 50 mM Na-Acetate pH 4.5, room temperature
How it was run: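 Run with 10 nM human BACE1 and 25 μM WABC-6 FRET peptide in 50 mM Na-acetate pH 4.5, 0.05% CHAPS, 25% PBS at room temperature. Fluorescence (ex 320/em 420 nm) was read every 40 sec for 30 min, and initial cleavage rates were taken from linear slopes across ≥10 inhibitor concentrations.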

Chain of human BACE1 (P56817 46-501): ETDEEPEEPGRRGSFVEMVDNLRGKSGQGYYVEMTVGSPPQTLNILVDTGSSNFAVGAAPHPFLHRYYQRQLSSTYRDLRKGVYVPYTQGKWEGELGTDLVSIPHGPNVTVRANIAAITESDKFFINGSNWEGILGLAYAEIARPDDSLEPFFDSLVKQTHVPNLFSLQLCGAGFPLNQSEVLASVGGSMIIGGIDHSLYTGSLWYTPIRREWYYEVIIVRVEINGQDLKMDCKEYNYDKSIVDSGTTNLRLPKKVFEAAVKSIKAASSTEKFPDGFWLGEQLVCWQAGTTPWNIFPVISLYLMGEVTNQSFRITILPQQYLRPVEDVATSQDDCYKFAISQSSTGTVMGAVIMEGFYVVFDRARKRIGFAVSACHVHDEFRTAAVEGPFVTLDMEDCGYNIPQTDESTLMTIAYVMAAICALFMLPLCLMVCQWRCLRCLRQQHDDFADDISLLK

| IC50 (human BACE1) | melting point | Compound |
| --- | --- | --- |
| 10 to 100 nM | 109 to 111 °C | CCn1cc([C@]2(c3cccc(-c4cccnc4F)c3)N=C(N)N(C)C2=O)cc1C(C)=O [Example 187, (5S)-5-(5-Acetyl-1-ethyl-1H-pyrrol-3-yl)-2-amino-5-[3-(2-fluoropyridin-3-yl)phenyl]-3-methyl-3,5-dihydro-4H-imidazol-4-one] |
| 110 to 1000 nM | 110 °C | COc1ccc(C2(c3ccc(-c4ccc(F)cc4)s3)N=C(N)N(C)C2=O)cc1C (stereo not drawn) [Example 110, 2-Amino-5-[5-(4-fluorophenyl)thien-2-yl]-5-(4-methoxy-3-methylphenyl)-3-methyl-3,5-dihydro-4H-imidazol-4-one] |
| 10 to 100 nM | 106 to 109 °C | CN1C(=O)C(c2cccc(-c3cccnc3F)c2)(c2cnn(C3CCCC3)c2)N=C1N (stereo not drawn) [Example 100] |
| 10 to 100 nM | 132 to 135 °C | CCNC(=O)c1cc(C2(c3cccc(-c4cccnc4F)c3)N=C(N)N(C)C2=O)cn1CC (stereo not drawn) [Example 158] |
| 10 to 100 nM | 112 to 114 °C | COc1cccc(-c2cc(C3(c4cnn(C(C)C)c4)N=C(N)N(C)C3=O)ccc2F)c1 (stereo not drawn) [Example 98] |
| 10 to 100 nM | 88 to 90 °C | CCOc1cccc(-c2cccc(C3(c4cnn(CC(F)(F)F)c4)N=C(N)N(C)C3=O)c2)c1 (stereo not drawn) [Example 83] |
| 10 to 100 nM | 86 °C | CCC(=O)c1cc(C2(c3cccc(OCC4CC4)c3)N=C(N)N(C)C2=O)cn1CC (stereo not drawn) [Example 137] |
| 10 to 100 nM | 195 to 197 °C | CN1C(=O)C(c2cccc(-c3cccnc3F)c2)(c2cnn(CCF)c2)N=C1N (stereo not drawn) [Example 68, 2-amino-5-[1-(2-fluoroethyl)-1H-pyrazol-4-yl]-5-[3-(2-fluoropyridin-3-yl)phenyl]-3-methyl-3,5-dihydro-4H-imidazol-4-one] |
| 10 to 100 nM | 125 to 128 °C | COC(=O)c1cc(C2(c3cccc(-c4ccc(F)c(F)c4)c3)N=C(N)N(C)C2=O)cn1CCF (stereo not drawn) [Example 198] |
| 10 to 100 nM | 206 to 210 °C | COC(=O)c1cc(C2(c3cccc(-c4ccc(F)nc4)c3)N=C(N)N(C)C2=O)cn1CCF (stereo not drawn) [Example 191] |
| 10 to 100 nM | 95 °C | CCCOc1cccc(C2(c3cc(C(=O)CC)n(CC)c3)N=C(N)N(C)C2=O)c1 (stereo not drawn) [Example 132, 2-Amino-5-(1-ethyl-5-propionyl-1H-pyrrol-3-yl)-3-methyl-5-(3-propoxyphenyl)-3,5-dihydro-4H-imidazol-4-one] |
| 10 to 100 nM | 111 to 113 °C | COC(=O)c1cc([C@]2(c3ccc(F)c(-c4cccnc4F)c3)N=C(N)N(C)C2=O)cn1CCF [Example 184A, Methyl 4-{(4S)-2-amino-4-[4-fluoro-3-(2-fluoropyridin-3-yl)phenyl]-1-methyl-5-oxo-4,5-dihydro-1H-imidazol-4-yl}-1-(2-fluoroethyl)-1H-pyrrole-2-carboxylate] |
| 110 to 1000 nM | 234 to 237 °C | CN1C(=O)C(c2cccc(-c3cncnc3)c2)(c2cscn2)N=C1N (stereo not drawn) [Example 41, 2-Amino-3-methyl-5-(3-pyrimidin-5-ylphenyl)-5-(1,3-thiazol-4-yl)-3,5-dihydro-4H-imidazol-4-one] |
| > 1000 nM | 88 to 90 °C | CN1C(=O)C(c2ccsc2)(c2cccc(OCC3CCCCC3)c2)N=C1N (stereo not drawn) [Example 147] |
| 10 to 100 nM | 86 to 90 °C | CC(C)CCn1cc(C2(c3cccc(-c4cccnc4F)c3)N=C(N)N(C)C2=O)cn1 (stereo not drawn) [Example 102] |
| 10 to 100 nM | 138 to 140 °C | CCn1cc(C2(c3cccc(-c4cccnc4F)c3)N=C(N)N(C)C2=O)cc1C(=O)NC (stereo not drawn) [Example 157] |
| 10 to 100 nM | 135 to 137 °C | CCC(=O)c1cc(C2(c3cccc(-c4cncnc4)c3)N=C(N)N(C)C2=O)cn1CC(F)(F)F (stereo not drawn) [Example 201] |
| 110 to 1000 nM | 103 to 105 °C | CN1C(=O)C(c2cccc(-c3cncnc3)c2)(c2ccn(CC(F)(F)F)c2)N=C1N (stereo not drawn) [Example 54] |
| 10 to 100 nM | 70 °C | CCCCCOc1cccc(C2(c3cc(C(=O)CC)n(CC)c3)N=C(N)N(C)C2=O)c1 (stereo not drawn) [Example 133] |
| 110 to 1000 nM | > 225 °C | CN1C(=O)C(c2ccc(F)c(-c3cccnc3F)c2)(c2cnn(CC(F)(F)F)c2)N=C1N (stereo not drawn) [Example 7, 2-Amino-5-[4-fluoro-3-(2-fluoropyridin-3-yl)phenyl]-3-methyl-5-[1-(2,2,2-trifluoroethyl)-1H-pyrazol-4-yl]-3,5-dihydro-4H-imidazol-4-one] |
| 110 to 1000 nM | 137 to 140 °C | COC(=O)c1cc(C2(c3cccc(-c4ccc5c(c4)OCO5)c3)N=C(N)N(C)C2=O)cn1CCF (stereo not drawn) [Example 199] |

| IC50 (human BACE1) | melting point | Compound |
| --- | --- | --- |
| 10 to 100 nM | 88 to 90 °C | CN1C(=O)C(c2cccc(-c3cccnc3F)c2)(c2cnn(CCC3CCCCC3)c2)N=C1N (stereo not drawn) [Example 104] |
| > 1000 nM | 110 to 120 °C | CN1C(=O)C(c2cccc(-c3cccnc3F)c2)(c2cc(CN3CCCC3)n(CCF)c2)N=C1N (stereo not drawn) [Example 237] |
| 110 to 1000 nM | 70 to 73 °C | CC(C)COc1cccc(C2(c3ccsc3)N=C(N)N(C)C2=O)c1 (stereo not drawn) [Example 148] |
| 10 to 100 nM | 107 to 111 °C | CCC(=O)c1cc(C2(c3cccc(-c4cccnc4F)c3)N=C(N)N(C)C2=O)cn1C (stereo not drawn) [Example 180] |
| 110 to 1000 nM | 154 to 159 °C | Cc1sccc1C1(c2cccc(-c3cncnc3)c2)N=C(N)N(C)C1=O (stereo not drawn) [Example 27, 2-Amino-5-(2-methylthien-3-yl)-3-methyl-5-(3-pyrimidin-5-ylphenyl)-3,5-dihydro-4H-imidazol-4-one] |
| 10 to 100 nM | 113 to 115 °C | CCn1cc(C2(c3ccc(F)c(-c4cccnc4F)c3)N=C(N)N(C)C2=O)cc1C(=O)OC (stereo not drawn) [Example 123] |
| 110 to 1000 nM | 128 to 132 °C | Cc1nn(CC(F)(F)F)cc1C1(c2cccc(-c3cccnc3F)c2)N=C(N)N(C)C1=O (stereo not drawn) [Example 11, 2-Amino-5-[3-(2-fluoropyridin-3-yl)phenyl]-3-methyl-5-[3-methyl-1-(2,2,2-trifluoroethyl)-1H-pyrazol-4-yl]-3,5-dihydro-4H-imidazol-4-one] |
| > 1000 nM | 85 to 87 °C | CN1C(=O)C(c2cccc(OCc3ccccc3)c2)(c2cnn(CC(F)(F)F)c2)N=C1N (stereo not drawn) [Example 92, 2-amino-5-[3-(benzyloxy)phenyl]-3-methyl-5-[1-(2,2,2-trifluoroethyl)-1H-pyrazol-4-yl]-3,5-dihydro-4H-imidazol-4-one] |
| 110 to 1000 nM | > 225 °C | CN1C(=O)C(c2cccc(-c3cc(F)cnc3Cl)c2)(c2cc(C#N)n(C)c2)N=C1N (stereo not drawn) [Example 227] |
| 110 to 1000 nM | 98 to 100 °C | CN1C(=O)C(c2cccc(-c3cc(F)ccc3F)c2)(c2cnn(CC(F)(F)F)c2)N=C1N (stereo not drawn) [Example 84] |
| 10 to 100 nM | 98 to 101 °C | COC(=O)c1cc(C2(c3cccc(-c4cccc(C#N)c4)c3)N=C(N)N(C)C2=O)cn1CCF (stereo not drawn) [Example 194] |
| 110 to 1000 nM | 223 to 225 °C | CN1C(=O)C(c2cccc(-c3cncnc3)c2)(c2cnn(CC(F)(F)F)c2)N=C1N (stereo not drawn) [Example 89] |
| 10 to 100 nM | 218 to 221 °C | CN1C(=O)C(c2cccc(-c3cccnc3F)c2)(c2cc(C=O)n(CCF)c2)N=C1N (stereo not drawn) [Example 234, 4-[2-Amino-4-[3-(2-fluoropyridin-3-yl)phenyl]-1-methyl-5-oxo-4,5-dihydro-1H-imidazol-4-yl]-1-(2-fluoroethyl)-1H-pyrrole-2-carbaldehyde] |
| 10 to 100 nM | 114 to 117 °C | CCn1cc([C@]2(c3ccc(F)c(-c4cccnc4F)c3)N=C(N)N(C)C2=O)cc1C(=O)OC [Example 186, Methyl 4-{(4S)-2-amino-4-[4-fluoro-3-(2-fluoropyridin-3-yl)phenyl]-1-methyl-5-oxo-4,5-dihydro-1H-imidazol-4-yl-}-ethyl-1H-pyrrole-2-carboxylate] |
| 10 to 100 nM | 213 °C | CN1C(=O)C(c2ccsc2)(c2cccc(-c3cccnc3F)c2)N=C1N (stereo not drawn) [Example 34] |
| 10 to 100 nM | 108 to 110 °C | CCC(=O)c1cc(C2(c3cccc(-c4cccnc4F)c3)N=C(N)N(C)C2=O)cn1CC(F)(F)F (stereo not drawn) [Example 200, 2-Amino-5-[5-propionyl-1-(2,2,2-trifluoroethyl)-1H-pyrrol-3-yl]-5-[3-(2-fluoropyridin-3-yl)phenyl]-3-methyl-3,5-dihydro-4H-imidazol-4-one] |
| > 1000 nM | 140 to 142 °C | CN1C(=O)C(c2ccc(OC(F)F)cc2)(c2cnn(CCF)c2)N=C1N (stereo not drawn) [Example 73] |
| 10 to 100 nM | 88 to 90 °C | COC(=O)c1cc(C2(c3ccc(F)c(-c4cncnc4)c3)N=C(N)N(C)C2=O)cn1CCF (stereo not drawn) [Example 118, Methyl 4-[2-Amino-4-(4-fluoro-3-pyrimidinyl-5-phenyl)-1-methyl-5-oxo-4,5-dihydro-1H-imidazol-4-yl]-1-(2-fluoroethyl)-1H-pyrrole-2-carboxylate] |
| 10 to 100 nM | 112 to 115 °C | CN1C(=O)C(c2cccc(-c3cncnc3)c2)(c2cnn(C3CCCC3)c2)N=C1N (stereo not drawn) [Example 105] |
| > 1000 nM | 140 °C | Cc1nc(F)ccc1-c1cccc(C2(c3ccsc3)N=C(N)N(C)C2=O)c1 (stereo not drawn) [Example 36] |
| 10 to 100 nM | 103 to 105 °C | CCC(=O)c1cc(C2(c3cccc(-c4cccc(OC)c4)c3)N=C(N)N(C)C2=O)cn1CC(F)(F)F (stereo not drawn) [Example 202] |

From patent US7705030B2, “Amino-5-(5-membered)hetero-arylimidazolone compounds and the use thereof for β-secretase modulation” (Wyeth LLC, priority 2005, dated 2010)
